Laboratory results published in publication PMC11323223 (Bioorganic chemistry, 2022).
Where “and” joins values, the source holds several entries; their conditions need not be identical. Identical values can stand only once. Like-named read-outs stand apart in the source and are kept apart here. Values belong to the compound of their own block, whether it stands above or below them.

Columns and labels:
FABP3 [1] = target: T1, FABP3 (Homo sapiens, UniProt P05413); conditions: read-out: FABP3 Ki; cited from earlier work
FABP7 [2] = target: T2, FABP7 (Homo sapiens, UniProt O15540); conditions: read-out: FABP7 Ki; cited from earlier work
[3] = test system: CFA-induced thermal hyperalgesia; test: CFA-induced thermal hyperalgesia; type: in vivo; conditions: 20 mg/kg, i.p., mice, 90 min after administration, n = 6
FABP3 [4] = target: T1, FABP3; test: Fluorescence displacement binding assay; conditions: for Ki: read-out: FABP3 Ki, average ± S.E. of at least three independent experiments; for FABP3/5 SI (selectivity index): FABP3 over FABP5, from Ki values
FABP7 [5] = target: T2, FABP7; test: Fluorescence displacement binding assay; conditions: for Ki: read-out: FABP7 Ki, average ± S.E. of at least three independent experiments; for FABP7/3 SI (selectivity index): FABP7 over FABP3, from Ki values; for FABP7/5 SI (selectivity index): FABP7 over FABP5, from Ki values
FABP5 = FABP5 (Homo sapiens, UniProt Q01469); test: Fluorescence displacement binding assay; conditions: for Ki: read-out: FABP5 Ki, average ± S.E. of at least three independent experiments; for FABP5/7 SI (selectivity index): FABP5 over FABP7, from Ki values; for FABP5/3 SI (selectivity index): FABP5 over FABP3, from Ki values
FABP5, sequence (Q01469 whole entry): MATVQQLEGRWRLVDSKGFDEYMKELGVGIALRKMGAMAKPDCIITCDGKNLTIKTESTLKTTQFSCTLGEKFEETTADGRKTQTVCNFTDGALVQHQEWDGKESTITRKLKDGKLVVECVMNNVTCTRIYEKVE

T1 sequence (P05413 whole entry): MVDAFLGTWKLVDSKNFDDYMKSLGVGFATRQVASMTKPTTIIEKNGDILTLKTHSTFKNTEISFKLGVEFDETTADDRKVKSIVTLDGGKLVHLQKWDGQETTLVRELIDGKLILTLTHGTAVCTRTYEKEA
T2 sequence (O15540 whole entry): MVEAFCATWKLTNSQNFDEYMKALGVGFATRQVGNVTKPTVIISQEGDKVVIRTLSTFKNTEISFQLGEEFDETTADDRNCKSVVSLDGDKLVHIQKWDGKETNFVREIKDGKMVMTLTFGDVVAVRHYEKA

SMILES: COc1ccccc1C1[C@H](C(=O)O)[C@H](c2ccccc2OC)[C@H]1C(=O)OCC1c2ccccc2-c2ccccc21 (stereo partly drawn) [L3]
Ki (FABP3 [1]): 25300 ± 4570 nM | Ki (FABP7 [2]): 14300 ± 410 nM

SMILES: COc1ccccc1C1C(C(=O)O)C(c2ccccc2OC)C1C(=O)OC1Cc2ccccc2C1 (stereo not drawn) [α-16, α-3-(2,3-Dihydro-1H-inden-2-yloxycarbonyl)-2,4-bis(2-methoxyphenyl)cyclobutane-1-carboxylic acid]
effect on thermal hyperalgesia [3]: full reversal of hyperalgesia | Ki (FABP3 [4]): 53.8 ± 7.28 µM | Ki (FABP7 [5]): 21800 ± 4220 nM

SMILES: O=C(O)C1C(c2ccccc2)C(C(=O)OCc2ccccc2-c2ccccc2)C1c1ccccc1 (stereo not drawn) [ε-11, ε-3-(1,1′-Biphenyl-2-ylmethoxycarbonyl)-2,4-diphenylcyclobutane-1-carboxylic acid]
Ki (FABP5): 1450 ± 260 nM | Ki (FABP3 [4]): 4.55 ± 0.64 µM | FABP7/3 SI (selectivity index) (FABP7 [5]): 25.3 | FABP7/5 SI (selectivity index) (FABP7 [5]): 8.1 | Ki (FABP7 [5]): 180 ± 10 nM

SMILES: COc1ccccc1C1C(C(=O)O)C(c2ccccc2OC)C1C(=O)Oc1cccc(-c2ccc(F)cc2)c1 (stereo not drawn) [α-13]
Ki (FABP5): 1030 ± 110 nM | Ki (FABP3 [4]): 2.28 ± 0.36 µM | Ki (FABP7 [5]): 990 ± 530 nM

SMILES: O=C(O)C1C(c2ccccc2)C(C(=O)Oc2cccc(-c3ccc4c(c3)OCCO4)c2)C1c1ccccc1 (stereo not drawn) [ε-203, ε-3-(3-(2,3-Dihydrobenzo[b][1,4]dioxin-6-yl)phenoxycarbonyl)-2,4-diphenyl-cyclobutane-1-carboxylic acid]
Ki (FABP5): 3150 ± 280 nM | Ki (FABP3 [4]): 7.84 ± 0.7 µM | Ki (FABP7 [5]): 1490 ± 150 nM

SMILES: O=C(O)C1C(c2ccccc2)C(C(=O)Oc2cccc3ccccc23)C1c1ccccc1 (stereo not drawn) [L1, α-truxillic acid 1‑naphthyl ester]
Ki (FABP3 [1]): 2700 ± 420 nM | Ki (FABP7 [2]): 450 ± 70 nM

SMILES: O=C(O)C1C(c2ccccc2)C(C(=O)Oc2cccc(C3=CCOCC3)c2)C1c1ccccc1 (stereo not drawn) [α-21, α-3-(3-(3,6-Dihydro-2H-pyran-4-yl)phenoxycarbonyl)-2,4-diphenylcyclobutane-1-carboxylic acid]
FABP5/7 SI (selectivity index) (FABP5): 0.47 | Ki (FABP5): 1750 ± 70 nM | Ki (FABP3 [4]): 67.9 ± 8.87 µM | FABP7/3 SI (selectivity index) (FABP7 [5]): 81.8 | FABP7/5 SI (selectivity index) (FABP7 [5]): 2.1 | Ki (FABP7 [5]): 830 ± 10 nM

SMILES: COc1ccccc1C1C(C(=O)O)C(c2ccccc2OC)C1C(=O)Oc1ccc(OC)c2ccccc12 (stereo not drawn) [γ-109, γ-3-(4-Methoxynaphthalen-1-yloxycarbonyl)-2,4-bis(2-methoxyphenyl)cyclobutane-1-carboxylic acid]
Ki (FABP5): 26600 ± 1880 nM | Ki (FABP3 [4]): 3.5 ± 0.63 µM | FABP7/3 SI (selectivity index) (FABP7 [5]): 7.4 | FABP7/5 SI (selectivity index) (FABP7 [5]): 56.6 | Ki (FABP7 [5]): 470 ± 80 nM

SMILES: N#Cc1ccc(-c2ccccc2OC(=O)C2C(c3ccccc3)C(C(=O)O)C2c2ccccc2)cc1 (stereo not drawn) [γ-102, γ-3-(4′-Cyano-1,1′-biphenyl-2-yloxycarbonyl)-2,4-diphenylcyclobutane-1-carboxylic acid]
FABP5/3 SI (selectivity index) (FABP5): 4.2 | Ki (FABP5): 1390 ± 70 nM | Ki (FABP3 [4]): 5.78 ± 1.3 µM | FABP7/3 SI (selectivity index) (FABP7 [5]): 6.1 | FABP7/5 SI (selectivity index) (FABP7 [5]): 1.5 | Ki (FABP7 [5]): 950 ± 50 nM

SMILES: COc1ccccc1C1C(C(=O)O)C(c2ccccc2OC)C1C(=O)OCC1(O)c2ccccc2-c2ccccc21 (stereo not drawn) [α-26, α-3-(9-Hydroxy-9H-fluoren-9-ylmethoxycarbonyl)-2,4-bis(2-methoxyphenyl)cyclobutane-1-carboxylic acid]
Ki (FABP5): 11800 ± 1640 nM | Ki (FABP3 [4]): 54.7 ± 3.43 µM | Ki (FABP7 [5]): 31000 ± 2470 nM

Ki (FABP5): 1590 ± 110 nM | FABP3/5 SI (selectivity index) (FABP3 [4]): 1.2 | Ki (FABP3 [4]): 1.28 ± 0.28 µM | FABP7/3 SI (selectivity index) (FABP7 [5]): 4.9 | FABP7/5 SI (selectivity index) (FABP7 [5]): 6.1 | Ki (FABP7 [5]): 260 ± 90 nM
SMILES: COc1ccccc1C1C(C(=O)O)C(c2ccccc2OC)C1C(=O)Oc1ccccc1-c1ccc2c(c1)OCO2 (stereo not drawn) [α-18, α-3-(2-(Benzo[d][1,3]dioxol-5-yl)phenoxycarbonyl)-2,4-bis(2-methoxyphenyl)-cyclobutane-1-carboxylic acid]

SMILES: O=C(O)C1C(c2ccccc2)C(C(=O)OCc2ccccc2-c2ccccc2)C1c1ccccc1 (stereo not drawn) [ε-201, ε-3-(1,1′-Biphenyl-2-ylmethoxycarbonyl)-2,4-diphenylcyclobutane-1-carboxylic acid]
Ki (FABP5): 1650 ± 220 nM | Ki (FABP3 [4]): 3.4 ± 0.54 µM | FABP7/3 SI (selectivity index) (FABP7 [5]): 5.0 | FABP7/5 SI (selectivity index) (FABP7 [5]): 2.4 | Ki (FABP7 [5]): 680 ± 160 nM

SMILES: COc1ccccc1C1C(C(=O)O)C(c2ccccc2OC)C1C(=O)Oc1cccc(-c2ccc(F)cc2)c1 (stereo not drawn) [γ-13, γ-3-(4′-Fluoro-1,1′-biphenyl-3-yloxycarbonyl)-2,4-bis(2-methoxyphenyl)-cyclobutane-1-carboxylic acid]
FABP5/3 SI (selectivity index) (FABP5): 3.4 | FABP5/7 SI (selectivity index) (FABP5): 2.0 | Ki (FABP5): 1770 ± 20 nM | Ki (FABP3 [4]): 6.1 ± 1.34 µM | Ki (FABP7 [5]): 3590 ± 240 nM

SMILES: O=C(O)C1C(c2ccccc2)C(C(=O)OCc2cccc3ccccc23)C1c1ccccc1 (stereo not drawn) [ε-23, ε-3-(Naphthalen-1-ylmethoxycarbonyl)-2,4-diphenylcyclobutane-1-carboxylic acid]
Ki (FABP5): 5080 ± 620 nM | Ki (FABP3 [4]): 7.42 ± 1.38 µM | Ki (FABP7 [5]): 860 ± 40 nM

SMILES: O=C1CCc2cc(-c3cccc(OC(=O)C4C(c5ccccc5)C(C(=O)O)C4c4ccccc4)c3)ccc2N1 (stereo not drawn) [γ-10, γ-3-(3-(2-Oxo-1,2,3,4-tetrahydroquinolin-6-yl)phenoxycarbonyl)-2,4-diphenyl-cyclobutane-1-carboxylic acid]
Ki (FABP5): 7590 ± 1110 nM | Ki (FABP3 [4]): 4.07 ± 0.24 µM | Ki (FABP7 [5]): 3490 ± 490 nM

SMILES: O=C(O)C1C(c2ccccc2)C(C(=O)Oc2cccc(-c3ccc4ccc(=O)[nH]c4c3)c2)C1c1ccccc1 (stereo not drawn) [γ-108, γ-3-(3-(2-Oxo-1,2-dihydroquinolin-7-yl)phenoxycarbonyl)-2,4-diphenylcyclobutane-1-carboxylic acid]
Ki (FABP5): 10900 ± 2810 nM | Ki (FABP3 [4]): 4.02 ± 0.36 µM | Ki (FABP7 [5]): 13800 ± 1300 nM

SMILES: COc1ccccc1C1C(C(=O)O)C(c2ccccc2OC)C1C(=O)Oc1ccccc1-c1ccccc1 (stereo not drawn) [α-19, α-3-(1,1′-Biphenyl-2-yloxycarbonyl)-2,4-bis(2-methoxyphenyl) cyclobutane-1-carboxylic acid]
Ki (FABP5): 1590 ± 240 nM | FABP3/5 SI (selectivity index) (FABP3 [4]): 7.6 | FABP3/7 SI (selectivity index) (FABP3 [4]; FABP3 over FABP7, from Ki values): 6.5 | Ki (FABP3 [4]): 0.21 ± 0.09 µM | Ki (FABP7 [5]): 1360 ± 230 nM

SMILES: COc1ccccc1C1C(C(=O)O)C(c2ccccc2OC)C1C(=O)OCC1(F)c2ccccc2-c2ccccc21 (stereo not drawn) [α-22, α-3-(9-Fluoro-9H-fluoren-9-yl)methoxycarbonyl-2,4-bis(2-methoxyphenyl)-cyclobutane-1-carboxylic acid]
FABP5/3 SI (selectivity index) (FABP5): 14.2 | FABP5/7 SI (selectivity index) (FABP5): 4.2 | Ki (FABP5): 1830 ± 270 nM | Ki (FABP3 [4]): 25.9 ± 2.4 µM | Ki (FABP7 [5]): 7720 ± 1200 nM

SMILES: COc1ccccc1C1C(C(=O)O)C(c2ccccc2OC)C1C(=O)OCc1cccc2ccccc12 (stereo not drawn) [α-23, α-3-(3-Naphthalen-1-ylmethoxycarbonyl)-2,4-bis(2-methoxyphenyl)cyclobutane-1-carboxylic acid]
Ki (FABP5): 2150 ± 170 nM | Ki (FABP3 [4]): 52.6 ± 8.62 µM | Ki (FABP7 [5]): 8040 ± 710 nM

SMILES: COc1ccccc1C1[C@H](C(=O)O)[C@H](c2ccccc2OC)[C@H]1C(=O)Oc1cccc2ccccc12 (stereo partly drawn) [L2]
Ki (FABP3 [1]): 690 ± 170 nM | Ki (FABP7 [2]): 670 ± 40 nM

SMILES: O=C1CCc2cc(-c3cccc(OC(=O)C4C(c5ccccc5)C(C(=O)O)C4c4ccccc4)c3)ccc2N1 (stereo not drawn) [α-8, α-3-(3-(2-Oxo-1,2,3,4-tetrahydroquinolin-6-yl)phenox-ycarbonyl)-2,4-diphenyl-cyclobutane-1-carboxylic acid]
FABP5/3 SI (selectivity index) (FABP5): 13.0 | FABP5/7 SI (selectivity index) (FABP5): 0.56 | Ki (FABP5): 590 ± 80 nM | Ki (FABP3 [4]): 7.67 ± 0.71 µM | FABP7/3 SI (selectivity index) (FABP7 [5]): 11.6 and 23.2 | FABP7/5 SI (selectivity index) (FABP7 [5]): 1.1 and 1.8

SMILES: COc1ccccc1C1C(C(=O)O)C(c2ccccc2OC)C1C(=O)Oc1cccc(-c2ccc3c(c2)OCCO3)c1 (stereo not drawn) [α-17, α-3-(3-(2,3-Dihydrobenzo[b][1,4]dioxin-6-yl)phenox-ycarbonyl)-2,4-Di-(2-methoxyphenyl)cyclobutane-1-carboxylic acid]
Ki (FABP5): 1560 ± 190 nM | Ki (FABP3 [4]): 2.79 ± 0.85 µM | Ki (FABP7 [5]): 2250 ± 130 nM
